These results are taken from ChEMBL document CHEMBL1146256, “ATP-conjugated peptide inhibitors for calmodulin-dependent protein kinase II” (Bioorg Med Chem Lett, 2007).

Starred links: 1 amine or outer side, 2 acyl side, 3 side chain; linkers in the order of their positions; H or OH if unused. Non-standard residues stand in square brackets, D forms with d. Residues, ends and D or L forms follow the SMILES beside them. ξ: configuration not given here. *: point of attachment. X1 = Nc1ncnc2c1ncn2[C@@H]1O[C@H](COP(=O)(O)OP(=O)(O)OP(=O)(O)OC2CC(=O)N(CCOCCOCCOCCN3C(=O)CC(S[C@@H](N[*:1])C(=O)[*:2])C3=O)C2=O)[C@@H](O)[C@H]1O; Biotin = O=C1N[C@H]2[C@H](CS[C@H]2CCCCC(=O)*)N1; ξF = NC(Cc1ccccc1)C(=O)O

By IC50 is commonly meant the concentration needed to halve the response being measured.

A short description of this test: Inhibition of CaMK2. The arrangement: species or system Homo sapiens.
The molecule `CC(C)C[C@H](NC(=O)[C@H](C)NC(=O)[C@H](CC(=O)O)NC(=O)[C@@H](NCC(=O)[C@H](CNC(=O)CCOP(=O)(O)OP(=O)(O)OP(=O)(O)OC[C@@H]1O[C@H](n2cnc3c(N)ncnc32)[C@@H](O)[C@H]1O)NC(=O)[C@H](CCC(=O)O)NC(=O)[C@H](CCC(N)=O)NC(=O)[C@H](CCCNC(=N)N)NC(=O)[C@H](CCCNC(=N)N)NC(=O)[C@H](CC(C)C)NC(=O)[C@H](C)NC(=O)[C@H](CCCCN)NC(=O)[C@H](CCCCN)NC(=O)CCCC[C@@H]1SC[C@@H]2NC(=O)N[C@@H]21)C(C)C)C(=O)O` yielded a concentration for half-maximal inhibition (IC50) of 0.067 µM.

`CC(C)C[C@H](NC(=O)[C@H](C)NC(=O)[C@H](CC(=O)O)NC(=O)[C@H](Cc1ccccc1)NCC(=O)[C@H](CNC(=O)CCOP(=O)(O)OP(=O)(O)OP(=O)(O)OC[C@@H]1O[C@H](n2cnc3c(N)ncnc32)[C@@H](O)[C@H]1O)NC(=O)[C@H](CCC(=O)O)NC(=O)[C@H](CCC(N)=O)NC(=O)[C@H](CCCNC(=N)N)NC(=O)[C@H](CCCNC(=N)N)NC(=O)[C@H](CC(C)C)NC(=O)[C@H](CCCCN)NC(=O)[C@H](CCCCN)NC(=O)[C@H](CCCCN)NC(=O)CCCC[C@@H]1SC[C@@H]2NC(=O)N[C@@H]21)C(=O)O` had an IC50 of 0.022 µM.

Consider `CC(C)C[C@H](NC(=O)[C@H](C)NC(=O)[C@H](CC(=O)O)NC(=O)CNCC(=O)[C@H](CNC(=O)CCOP(=O)(O)OP(=O)(O)OP(=O)(O)OC[C@@H]1O[C@H](n2cnc3c(N)ncnc32)[C@@H](O)[C@H]1O)NC(=O)[C@H](CCC(=O)O)NC(=O)[C@H](CCC(N)=O)NC(=O)[C@H](CCCNC(=N)N)NC(=O)[C@H](CCCNC(=N)N)NC(=O)[C@H](CC(C)C)NC(=O)[C@H](C)NC(=O)[C@H](CCCCN)NC(=O)[C@H](CCCCN)NC(=O)CCCC[C@@H]1SC[C@@H]2NC(=O)N[C@@H]21)C(=O)O`, for which the half-maximal inhibitory concentration (IC50) came to 1.32 µM.

On to `CC(C)C[C@H](NC(=O)[C@H](C)NC(=O)[C@H](CCCCN)NC(=O)[C@H](CCCCN)NC(=O)CCCC[C@@H]1SC[C@@H]2NC(=O)N[C@@H]21)C(=O)N[C@@H](CCCNC(=N)N)C(=O)N[C@@H](CCCNC(=N)N)C(=O)N[C@@H](CCC(N)=O)C(=O)N[C@@H](CCC(=O)O)C(=O)N[C@@H](C)C(=O)NCC(=O)N[C@@H](CC(=O)O)C(=O)N[C@@H](C)C(=O)N[C@@H](CC(C)C)C(=O)N[C@H](SC1CC(=O)N(CCOCCOCCOCCN2C(=O)CC(OP(=O)(O)OP(=O)(O)OP(=O)(O)OC[C@H]3O[C@@H](n4cnc5c(N)ncnc54)[C@H](O)[C@@H]3O)C2=O)C1=O)C(=O)O` (some centres undefined) (Biotin-KKALRRQEAGDAL[X1]-OH), for which the half-inhibitory concentration (IC50) turned out to be 18 µM.

Molecule `CC(C)C[C@H](NC(=O)[C@H](C)NC(=O)[C@H](CCCCN)NC(=O)[C@H](CCCCN)NC(=O)CCCC[C@@H]1SC[C@@H]2NC(=O)N[C@@H]21)C(=O)N[C@@H](CCCNC(=N)N)C(=O)N[C@@H](CCCNC(=N)N)C(=O)N[C@@H](CCC(N)=O)C(=O)N[C@@H](CCC(=O)O)C(=O)N[C@@H](C)C(=O)N[C@H](C(=O)N[C@@H](CC(=O)O)C(=O)N[C@@H](C)C(=O)N[C@@H](CC(C)C)C(=O)N[C@H](SC1CC(=O)N(CCOCCOCCOCCN2C(=O)CC(OP(=O)(O)OP(=O)(O)OP(=O)(O)OC[C@H]3O[C@@H](n4cnc5c(N)ncnc54)[C@H](O)[C@@H]3O)C2=O)C1=O)C(=O)O)C(C)C` (some centres undefined) (Biotin-KKALRRQEAVDAL[X1]-OH) registered a 50% inhibitory concentration (IC50) of 0.305 µM. Against the preceding molecule, the IC50 is about 59-fold lower.

`CC(C)C[C@H](NC(=O)[C@H](C)NC(=O)[C@H](CC(=O)O)NC(=O)C(Cc1ccccc1)NC(=O)[C@H](C)NC(=O)[C@H](CCC(=O)O)NC(=O)[C@H](CCC(N)=O)NC(=O)[C@H](CCCNC(=N)N)NC(=O)[C@H](CCCNC(=N)N)NC(=O)[C@H](CC(C)C)NC(=O)[C@H](CCCCN)NC(=O)[C@H](CCCCN)NC(=O)[C@H](CCCCN)NC(=O)CCCC[C@@H]1SC[C@@H]2NC(=O)N[C@@H]21)C(=O)N[C@H](SC1CC(=O)N(CCOCCOCCOCCN2C(=O)CC(OP(=O)(O)OP(=O)(O)OP(=O)(O)OC[C@H]3O[C@@H](n4cnc5c(N)ncnc54)[C@H](O)[C@@H]3O)C2=O)C1=O)C(=O)O` (some centres undefined) (Biotin-KKKLRRQEA[ξF]DAL[X1]-OH) yielded a half-inhibitory concentration (IC50) of 0.181 µM.

Consider H-KKALRRQEAGDAL-OH, for which it took 4 µM to reach half-maximal inhibition (IC50).

In turn, H-KKALRRQEAVDAL-OH came in with an IC50 of 0.32 µM.

H-KKKLRRQEAFDAL-OH returned an IC50 of 0.076 µM.
